Reference: publication PMC9154774, “4-(3-Alkyl/benzyl-guanidino)benzenesulfonamides as selective carbonic anhydrase VII inhibitors” (Journal of Enzyme Inhibition and Medicinal Chemistry, 2022)

Assays:
Assay in all cases: stopped-flow CO2 hydration assay, phenol red
Type in all cases: biochemical
CA VII (hCA VII) = target: T1, CA VII (hCA VII) (Homo sapiens, UniProt P43166)
T1 construct: gene CA7; recombinant, obtained in-house as reported earlier
Text: stopped-flow CO2 hydration assay, phenol red on CA VII (hCA VII)

CA II (hCA II) = target: T2, CA II (hCA II) (Homo sapiens, UniProt P00918)
T2 construct: gene CA2; recombinant, obtained in-house as reported earlier
Text: stopped-flow CO2 hydration assay, phenol red on CA II (hCA II)

CA I (hCA I) = target: T3, CA I (hCA I) (Homo sapiens, UniProt P00915)
T3 construct: gene CA1; recombinant, obtained in-house as reported earlier
Text: stopped-flow CO2 hydration assay, phenol red on CA I (hCA I)

T3 sequence (P00915 2-261): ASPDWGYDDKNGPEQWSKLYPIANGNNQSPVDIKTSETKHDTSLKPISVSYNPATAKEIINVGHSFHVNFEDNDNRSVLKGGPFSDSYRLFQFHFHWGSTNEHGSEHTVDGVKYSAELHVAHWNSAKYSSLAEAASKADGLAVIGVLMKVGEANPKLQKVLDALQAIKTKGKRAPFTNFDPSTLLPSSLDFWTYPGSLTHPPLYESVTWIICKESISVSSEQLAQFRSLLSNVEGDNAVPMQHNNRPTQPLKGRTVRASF
T1 sequence (P43166 whole entry): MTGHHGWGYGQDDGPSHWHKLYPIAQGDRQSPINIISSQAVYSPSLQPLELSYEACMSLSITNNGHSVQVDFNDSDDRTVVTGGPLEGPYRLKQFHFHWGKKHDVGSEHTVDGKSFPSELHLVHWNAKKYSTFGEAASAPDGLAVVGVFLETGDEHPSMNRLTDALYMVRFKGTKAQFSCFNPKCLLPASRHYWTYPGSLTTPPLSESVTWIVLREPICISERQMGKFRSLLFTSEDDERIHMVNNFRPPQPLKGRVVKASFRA

Row | SMILES | Ki (CA VII (hCA VII)) [nM] | Ki (CA II (hCA II)) [nM] | Ki (CA I (hCA I)) [nM]
1 | COc1ccc(CNC(=N)Nc2ccc(S(N)(=O)=O)cc2)cc1 [7b, 4-(3-(4-Methoxybenzyl)guanidino)benzenesulfonamide] | 25.1 | 17.7 | 699
2 | N=C(NCc1cccc(F)c1)Nc1ccc(S(N)(=O)=O)cc1 [7d, 4-(3-(3-Fluorobenzyl)guanidino)benzenesulfonamide] | 60.7 | 1.6 | 782
3 | Cc1cccc(CNC(=N)Nc2ccc(S(N)(=O)=O)cc2)c1 [7f, 4-(3-(3-Methylbenzyl)guanidino)benzenesulfonamide] | 0.9 | 0.3 | 2930
4 | Cc1ccccc1CNC(=N)Nc1ccc(S(N)(=O)=O)cc1 [7g, 4-(3-(2-Methylbenzyl)guanidino)benzenesulfonamide] | 0.4 | 0.07 | 3160
5 | Cc1cccc(CN(C)C(=N)Nc2ccc(S(N)(=O)=O)cc2)c1 [7i, 4-(3-Methyl-3-(3-methylbenzyl)guanidino)benzenesulfonamide] | 0.7 | 0.08 | 1140
6 | N=C(Nc1ccc(S(N)(=O)=O)cc1)N(Cc1ccccc1)Cc1ccccc1 [7j, 4-(3,3-Dibenzyl-guanidino)benzenesulfonamide] | 3.2 | 0.6 | 5850
7 | CCCCCCCCNC(=N)Nc1ccc(S(N)(=O)=O)cc1 [7l, 4-(3-octylguanidino)benzenesulfonamide] | 2.2 | 0.9 | 730
8 | CCCCCCCCCCCCNC(=N)Nc1ccc(S(N)(=O)=O)cc1 [7m, 4–(3-Dodecylguanidino)benzenesulfonamide] | 0.2 | 0.4 | 930
9 | CCCCCCCCCCCCCCCCNC(=N)Nc1ccc(S(N)(=O)=O)cc1 [7n, 4-(3-hexadecylguanidino)benzenesulfonamide] | 0.08 | 0.06 | 2150

Other lines, results leading:

Row | Ki (CA VII (hCA VII)) [nM] | Ki (CA II (hCA II)) [nM] | Ki (CA I (hCA I)) [nM] | SMILES
10 | 10.1 | 7.7 | 746 | N=C(NCc1ccccc1)Nc1ccc(S(N)(=O)=O)cc1 [7a, 4-(3-Benzyl-guanidino)benzenesulfonamide]
11 | 15 | 59.1 | 989 | N=C(NCc1ccc(F)cc1)Nc1ccc(S(N)(=O)=O)cc1 [7c, 4-(3-(4-Fluorobenzyl)guanidino)benzenesulfonamide]
12 | 44.9 | 3.2 | 2990 | N=C(NCc1ccccc1F)Nc1ccc(S(N)(=O)=O)cc1 [7e, 4-(3-(2-Fluorobenzyl)guanidino)benzenesulfonamide]
13 | 1.1 | 9.6 | 1320 | CC(NC(=N)Nc1ccc(S(N)(=O)=O)cc1)c1ccccc1 (stereo not drawn) [7h, 4-(3-(1-Phenylethyl)guanidino)benzenesulfonamide]
14 | 8.7 | 6.9 | 4180 | N=C(NCCOc1ccccc1)Nc1ccc(S(N)(=O)=O)cc1 [7k, 4-(3-(2-Phenoxyethyl)guanidino)benzenesulfonamide]
15 | 0.06 | 0.1 | 3680 | N=C(Nc1ccc(S(N)(=O)=O)cc1)N1CCN(Cc2ccccc2)CC1 [7o, 4-Benzyl-N-(4-sulfamoylphenyl)piperazine-1-carboximidamide]
